Reference: patent US10271552B2, “Heterocyclic compounds as pesticides” (Bayer CropScience Aktiengesellschaft, priority 2015, dated 2019)

How the values were obtained:
Assay type in all cases: in vivo
[1] = test system: Boophilus microplus; assay: Boophilus microplus injection test; settings: 20 μg/animal injected; adult engorged female ticks; after 7 days
Experimental: Boophilus microplus—Injection Test
(§1) Solvent: dimethyl sulfoxide
To produce a suitable preparation of active compound, 10 mg of active compound are dissolved in 0.5 ml solvent, and the concentrate is diluted with solvent to the desired concentration.
Five adult engorged female ticks (Boophilus microplus) are injected with 1 μl compound solution into the abdomen. The ticks are transferred into replica plates and incubated in a climate chamber.
After 7 days egg deposition of fertile eggs is monitored. Eggs where fertility is not visible are stored in a climate chamber till hatching after about 42 days. An efficacy of 100% means all eggs are infertile; 0% means all eggs are fertile.

[2] = test system: Ctenocephalides felis; assay: whole plant or invertebrate; settings: po, 48 h
Experimental: Ctenocephalides felis—Oral Test
as §1
To produce a suitable preparation of active compound, 10 mg of active compound are dissolved in 0.5 ml solvent, and the concentrate is diluted with cattle blood to the desired concentration.
Approximately 20 adult unfed cat fleas (Ctenocephalides felis) are placed in flea chambers. The blood chamber, sealed with parafilm on the bottom, are filled with cattle blood supplied with compound solution and placed on the gauze covered top of the flea chamber, so that the fleas are able to suck the blood. The blood chamber is heated to 37° C. whereas the flea chamber is kept at room temperature.
After 2 days mortality in % is determined. 100% means all the fleas have been killed; 0% means none of the fleas have been killed.

[3] = test system: Haemonchus contortus; assay: Haemonchus contortus test; settings: for larval mortality (efficacy): 20 ppm, larvae, after 5 days
Experimental: Haemonchus contortus—Test
as §1
To produce a suitable preparation of active compound, 10 mg of active compound are dissolved in 0.5 ml solvent, and the concentrate is diluted with “Ringer's solution” to the desired concentration.
Approximately 40 larvae of the red stomach worm (Haemonchus contortus) are transferred into a test tube containing compound solution.
After 5 days the percentage of larval mortality is recorded. 100% efficacy means all larvae are killed, 0% efficacy means no larvae are killed.

[4] = test system: Meloidogyne incognita; assay: Meloidogyne incognita test; settings: 20 ppm; eggs and larvae, salad seeds in sand; after 14 days
Experimental: Meloidogyne incognita—Test
Solvent: 125.0 parts by weight of acetone
To produce a suitable preparation of active compound, 1 part by weight of active compound is mixed with the stated amount of solvent, and the concentrate is diluted with water to the desired concentration.
Vessels are filled with sand, a solution of the active ingredient, a suspension containing eggs and larvae of the southern root-knot nematode (Meloidogyne incognita) and salad seeds. The salad seeds germinate and the seedlings grow. Galls develop in the roots.
After 14 days the nematicidal activity is determined on the basis of the percentage of gall formation. 100% means no galls were found and 0% means the number of galls found on the roots of the treated plants was equal to that in untreated control plants.

[5] = test system: Phaedon cochleariae; assay: Phaedon cochleariae spray test; settings: foliar, 168 h, Chinese cabbage leaf disks, larvae, after 7 days
Experimental: Phaedon cochleariae—Spray Test
(§2) Solvent: 78.0 parts by weight of acetone • • 1.5 parts by weight of dimethylformamide
(§3) Emulsifier: alkylarylpolyglycol ether
(§4) To produce a suitable preparation of active compound, 1 part by weight of active compound is mixed with the stated amount of solvents and is diluted with water, containing an emulsifier concentration of 1000 ppm, to the desired concentration. Further test concentrations are prepared by dilution with emulsifier containing water.
Chinese cabbage (Brassica pekinensis) leaf disks are sprayed with a preparation of the active ingredient of the desired concentration. Once dry, the leaf disks are infested with mustard beetle larvae (Phaedon cochleariae).
After 7 days mortality in % is determined. 100% means all beetle larvae have been killed and 0% means none of the beetle larvae have been killed.

[6] = test system: Tetranychus urticae; assay: Tetranychus urticae spray test OP-resistant; settings: foliar, 144 h, French bean leaf disks, all instars, after 6 days
Experimental: Tetranychus urticae—Spray Test OP-Resistant
(§5) Solvent: 78.0 parts by weight acetone • 1.5 parts by weight dimethylformamide
as §3, §4
French bean (Phaseolus vulgaris) leaf disks infected with all instars of the two spotted spidermite (Tetranychus urticae), are sprayed with a preparation of the active ingredient of the desired concentration.
After 6 days mortality in % is determined. 100% means all spider mites have been killed and 0% means none of the spider mites have been killed.

[7] = test system: Nezara viridula; assay: Nezara viridula spray test (solvent 52.5 acetone / 7 dimethylformamide); settings: 96 h, barley plants, larvae, after 4 days
Experimental: Nezara viridula—Spray Test
(§6) Solvent: 52.5 parts by weight of acetone • 7 parts by weight of dimethylformamide
(§7) Emulsifier: alkylaryl polyglycolether
(§8) To produce a suitable preparation of active compound, 1 part by weight of active compound is mixed with the stated amount of solvent, and the concentrate is diluted with water, containing an emulsifier concentration of 1000 ppm, to the desired concentration. Ammonium salt and/or penetration enhancer in a dosage of 1000 ppm are added to the desired concentration if necessary.
Barley plants (Hordeum vulgare) infested with larvae of the southern green stink bug (Nezara viridula) are sprayed with a test solution containing the desired concentration of the active ingredient.
After 4 days mortality in % is determined. 100% means all the stink bugs have been killed; 0% means none of the stink bugs have been killed.

[8] = test system: Lucilia cuprina; assay: whole plant or invertebrate; settings: 48 h
Experimental: as §1
10 mg active compound are dissolved in 0.5 ml Dimethylsulfoxid. Serial dilutions are made to obtain the desired rates.
Approximately 20 1st instar larvae of the Australian sheep blowfly (Lucilia cuprina) are transferred into a test tube containing minced horse meat and compound solution of the desired concentration.
After 2 days mortality in % is determined. 100% means all the larvae have been killed; 0% means none of the larvae have been killed.

[9] = test system: Ctenocephalides felis; assay: Ctenocephalides felis in-vitro contact test, adult cat flea; settings: 5 μg/cm^2 (=500 g/ha), after 48 hours
Experimental: Ctenocephalides felis—In-Vitro Contact Tests Adult Cat Flea
9 mg compound is solved in 1 ml acetone and diluted with acetone to the desired concentration. 250 μl of the test solution is filled in 25 ml glass test tubes and homogeneously distributed on the inner walls by rotation and tilting on a shaking device (2 h at 30 rpm). With a compound concentration of 900 ppm, an inner surface of 44.7 cm^2 and a homogeneous distribution, a dose of 5 μg/cm^2 is achieved.
After the solvent has evaporated, each test tube is filled with 5-10 adult cat fleas (Ctenocephalides felis), closed with a perforated lid and incubated in a lying position at room temperature and relative humidity. After 48 hours efficacy is determined. The fleas are patted on the ground of the tubes and are incubated on a heating plate at 45-50° C. for at most 5 minutes. Immotile or uncoordinated moving fleas, which are not able to escape the heat by climbing upwards, are marked as dead or moribund.
An efficacy of 100% means all fleas are dead or moribund; 0% means no fleas are dead or moribund.

[10] = test system: Diabrotica balteata; assay: Diabrotica balteata spray test; settings: 160 μg/well; germinated wheat seeds, larvae; after 7 days
Experimental: Diabrotica Balteata—Spray Test
as §2, §3
as §4, with “solvent,” for “solvents”, “and the concentrate” for “and”
Soaked wheat seeds (Triticum aestivum) are placed in a multiple well plate filled with agar and some water and are incubated for 1 day to germinate (5 seeds per well). The germinated wheat seeds are sprayed with a test solution containing the desired concentration of the active ingredient. Afterwards each unit is infected with 10-20 larvae of the banded cucumber beetle (Diabrotica balteata).
After 7 days efficacy in % is determined. 100% means all the seedlings have grown up like in the untreated, uninfected control; 0% means none of the seedlings have grown.

[11] = test system: Myzus persicae; assay: Myzus persicae spray test; settings: foliar, Chinese cabbage leaf disks, all instars, after 5-6 days
Experimental: Myzus persicae—Spray Test
as §5, §3, §4
Chinese cabbage (Brassica pekinensis) leaf disks infected with all instars of the green peach aphid (Myzus persicae), are sprayed with a preparation of the active ingredient of the desired concentration.
After 5-6 days mortality in % is determined. 100% means all aphids have been killed and 0% means none of the aphids have been killed.

[12] = test system: Nilaparvata lugens; assay: Nilaparvata lugens spray test (solvent 52.5 acetone / 7 dimethylformamide); settings: 96 h, rice plants, larvae, after 4 days
Experimental: Nilaparvata lugens—Spray Test
as §6, §7
as §8, with “solvents” for “solvent,”, “and” for “and the concentrate”, “concentration. Further test concentrations are prepared by dilution with emulsifier containing water.” for “concentration.”
Rice plants (Oryza sativa) are treated by being sprayed with the desired concentration of the active compound and are infested with larvae of the brown planthopper (Nilaparvata lugens).
After 4 days mortality in % is determined. 100% means all planthoppers have been killed and 0% means none of the planthoppers have been killed.

[13] = test system: Plutella xylostella; assay: Plutella xylostella spray test; settings: 100 ppm; cabbage leaves, larvae; after 7 days
Experimental: Plutella xylostella—Spray Test
Solvent: 14 parts by weight of dimethylformamide
Emulsifier: alkylaryl polyglycol ether
as §4, with “solvent” for “solvents”
Cabbage leaves (Brassica oleracea) are treated by being sprayed with the preparation of the active compound of the desired concentration and are infested with larvae of the diamondback moth (Plutella xylostella).
After 7 days, mortality in % is determined. 100% means all the caterpillars have been killed and 0% means none of the caterpillars have been killed.

[14] = test system: Musca domestica; assay: Musca domestica test; settings: 100 ppm; adult house flies; after 2 days
Experimental: as §1
To produce a suitable preparation of active compound, 10 mg of active compound are dissolved in 0.5 ml solvent, and the concentrate is diluted with water to the desired concentration.
10 adult house flies (Musca domestica) are transferred into a container, containing a sponge soaked with a mixture of sugar solution and compound solution of the desired concentration.
After 2 days mortality in % is determined. 100% means all the flies have been killed; 0% means none of the flies have been killed.

Compound: O=C(Nc1nc(-c2c(F)cccc2F)ns1)c1c(F)cccc1F [Compound I-1-1, N-[3-(2,6-difluorophenyl)-1,2,4-thiadiazol-5-yl]-2,6-difluorobenzamide]
- efficacy (infertile eggs) [1]: 100%
- mortality at 100 ppm [2]: 95%
- mortality at 20 ppm ([3]; Haemonchus contortus, 120 h, read-out: larval mortality (efficacy)): 80%
- nematicidal activity (gall formation) [4]: 90%
- mortality at 500 g/ha [5]: ≥ 80%
- mortality at 500 g/ha [6]: ≥ 70%
- mortality at 500 g/ha [7]: ≥ 90%

Compound: O=C(Nc1nc(-c2c(F)cccc2F)ns1)c1ccccc1F [Compound I-1-2]
- larval mortality (efficacy) [3]: 100%
- nematicidal activity (gall formation) [4]: 100%

Compound: O=C(Nc1nc(-c2c(F)cccc2F)ns1)c1ccccc1Br [Compound I-1-5, 2-Bromo-N-[3-(2,6-difluorophenyl)-1,2,4-thiadiazol-5-yl]benzamide]
- efficacy (infertile eggs) [1]: 100%
- mortality at 100 ppm [8]: 70 to 100%
- nematicidal activity (gall formation) [4]: 90%
- mortality at 500 g/ha [5]: ≥ 80%
- mortality at 500 g/ha [6]: ≥ 70%

Compound: O=C(Nc1nc(-c2c(F)cccc2F)ns1)c1cccnc1C(F)(F)F [Compound I-1-6, N-[3-(2,6-difluorophenyl)-1,2,4-thiadiazol-5-yl]-2-(trifluoromethyl)nicotinamide]
- efficacy (fleas dead or moribund) [9]: 100%
- efficacy (infertile eggs) [1]: 100%
- mortality at 100 ppm [2]: 100%
- mortality at 100 ppm [8]: 100%
- efficacy (seedling growth) [10]: 80%
- nematicidal activity (gall formation) [4]: 100%
- mortality at 500 g/ha [11]: ≥ 70%
- mortality at 500 g/ha [12]: ≥ 80%

Compound: O=C(Nc1nc(-c2c(F)cccc2F)ns1)c1ccccc1[N+](=O)[O-] [Compound I-1-10]
- nematicidal activity (gall formation) [4]: 100%
- mortality [13]: 100%

Compound: O=C(Nc1nc(-c2c(F)cccc2F)ns1)c1cccc(F)c1C(F)(F)F [Compound I-1-11]
- efficacy (infertile eggs) [1]: 100%
- mortality [13]: 100%

Compound: O=C(Nc1nc(-c2c(F)cccc2F)ns1)c1c(F)cccc1C(F)(F)F [Compound I-1-12]
- efficacy (infertile eggs) [1]: 100%
- nematicidal activity (gall formation) [4]: 100%
- mortality [13]: 100%

Compound: O=C(Nc1nc(-c2ccc(F)cc2F)ns1)c1cccnc1C(F)(F)F [Compound I-1-56]
- larval mortality (efficacy) [3]: 80%

Compound: O=C(Nc1nc(-c2ccccc2F)ns1)c1cccnc1C(F)(F)F [Compound I-1-57]
- efficacy (infertile eggs) [1]: 100%
- mortality [14]: 100%
- efficacy (seedling growth) [10]: 100%

Compound: O=C(Nc1nc(-c2c(C(F)(F)F)cccc2C(F)(F)F)ns1)c1cccnc1C(F)(F)F [Compound I-1-65, N-{3-[2,6-Bis(trifluoromethyl)phenyl]-1,2,4-thiadiazol-5-yl}-2-(trifluoromethyl)nicotinamide]
- mortality at 500 g/ha [7]: ≥ 90%
- mortality at 500 g/ha [12]: ≥ 80%

Compound: O=C(Nc1nc(-c2ncc(C(F)(F)F)cc2Cl)ns1)c1cccnc1C(F)(F)F [Compound I-2-3, N-{3-[3-Chloro-5-(trifluoromethyl)pyridin-2-yl]-1,2,4-thiadiazol-5-yl}-2-(trifluoromethyl)nicotinamide]
- mortality at 500 g/ha [11]: ≥ 70%
- mortality at 500 g/ha [5]: ≥ 80%

Compound: O=C(Nc1nc(-c2ncccc2Cl)ns1)c1ccccc1Cl [Compound I-2-6, 2-Chloro-N-[3-(3-chloropyridin-2-yl)-1,2,4-thiadiazol-5-yl]benzamide]
- mortality at 500 g/ha [5]: ≥ 80%
- mortality at 500 g/ha [6]: ≥ 70%
- mortality at 500 g/ha [12]: ≥ 80%
